The record followed here is ChEMBL document CHEMBL6120946, “From Hit to Lead: Discovery of First-In-Class Furanone Glycoside D228 Derived from Chimonanthus salicifolius for the Treatment of Inflammatory Bowel Disease” (J Med Chem, 2024).

The test system of data set [1] is Mus musculus. As to the kind of experiment: Antiinflammatory activity in DSS-induced male C57BL/6 mouse model of inflammatory bowel disease assessed as downregulation of MyD88 expression at 50 to 200 microM/Kg by Western blot analysis. To be noted: dose 50-200 µM/Kg. It counts as functional, organism-based. (Immunoblotting shows a protein as a band on a membrane.)

Data set [2] deals with Mus musculus. As to the kind of experiment: Antiinflammatory activity in DSS-induced male C57BL/6 mouse model of inflammatory bowel disease assessed as increase in colon length at 15 mg/kg/day, po via gavage measured upto 14 days relative to control. Format: functional. To be noted: time <= 14 day.
The subject of data set [3] is Mus musculus. The data set can be described thus: Antiinflammatory activity in DSS-induced male C57BL/6 mouse model of inflammatory bowel disease assessed as amelioration of crypts disruption at 50 to 200 microM/Kg by H and E staining based analysis. Format: functional, organism-based. Conditions: dose 50-200 µM/Kg.
The test system of data set [4] is Mus musculus. As to the kind of experiment: Antiinflammatory activity in DSS-induced male C57BL/6 mouse model of inflammatory bowel disease assessed as downregulation of TRAF6 expression at 50 to 200 microM/Kg by Western blot analysis. Format: functional, organism-based. To be noted: dose 50-200 µM/Kg.
The species entered for data set [5] is Mus musculus. The data set can be described thus: Antiinflammatory activity in DSS-induced male C57BL/6 mouse model of inflammatory bowel disease assessed as reduction in JNK level. Format: functional, organism-based.
Data set [6] relates to Mus musculus. As to the kind of experiment: Antiinflammatory activity in DSS-induced male C57BL/6 mouse model assessed as inhibition of IL-17A level in colon at 50 to 200 microM/Kg. It counts as functional, organism-based. To be noted: dose 50-200 µM/Kg.
Data set [7] is filed under the species Mus musculus. As to the kind of experiment: Antiinflammatory activity in DSS-induced male C57BL/6 mouse model of inflammatory bowel disease assessed as reduction in TLR7 level. It counts as functional, organism-based.
The subject of data set [8] is Mus musculus. The data set can be described thus: Antiinflammatory activity in DSS-induced male C57BL/6 mouse model of inflammatory bowel disease assessed as recovery from body weight loss at 10 mg/kg/day, ip measured after 14 days relative to control. It counts as functional. Conditions: time 14 day.
In data set [9] the test system is Mus musculus. The data set can be described thus: Antiinflammatory activity in DSS-induced male C57BL/6 mouse model of inflammatory bowel disease assessed as increase in colon length at 40 mg/kg/day, ip measured after 14 days relative to control. It counts as functional. To be noted: time 14 day.
Data set [10] has as its system Mus musculus. As to the kind of experiment: Antiinflammatory activity in DSS-induced male C57BL/6 mouse model assessed as increase in IL-10 level in colon at 50 to 200 microM/Kg. It counts as functional, organism-based. Conditions: dose 50-200 µM/Kg.
In data set [11] the test system is Mus musculus. The data set can be described thus: Antiinflammatory activity in DSS-induced male C57BL/6 mouse model of inflammatory bowel disease assessed as increase in colon length at 60 mg/kg/day, po via gavage measured upto 14 days relative to control. To be noted: time <= 14 day. Format: functional.
Data set [12] in a line: Toxicity in male Kunming mouse assessed as effect on T-CHO level in serum at 100 to 500 mg/kg/day, po measured after 5 weeks. Format: organism-based. Conditions: in vivo, 840 h, dose 100-500 mg/kg/day.
Data set [13] has as its system Mus musculus. As to the kind of experiment: Antiinflammatory activity in DSS-induced male C57BL/6 mouse model of inflammatory bowel disease assessed as amelioration of crypts disruption at 50 to 100 microM/Kg by H and E staining based analysis. To be noted: dose 50-100 µM/Kg. Format: functional, organism-based.
Data set [14] can be described thus: Toxicity in female Kunming mouse assessed as effect on GGT level in serum at 100 to 500 mg/kg/day, po measured after 5 weeks. It counts as organism-based. Conditions: in vivo, 840 h, dose 100-500 mg/kg/day.
Data set [15] in a line: Metabolic stability in human plasma assessed as half life at pH 7.4 measured upto 60 mins by HPLC-MS analysis. Format: ADME, cell-free.
Data set [16] relates to Mus musculus. The data set can be described thus: Antiinflammatory activity in DSS-induced male C57BL/6 mouse model of inflammatory bowel disease assessed as increase in colon length at 45 mg/kg/day, po via gavage measured upto 14 days relative to control. Format: functional. Conditions: time <= 14 day.
The nature of data set [17]: Toxicity in male Kunming mouse assessed as effect on liver at 100 to 500 mg/kg/day, po measured after 5 weeks by H and E staining based analysis. Format: organism-based. To be noted: in vivo, 840 h, dose 100-500 mg/kg/day.
Data set [18] in a line: Acute toxicity in female Kunming mouse assessed as effect on body weight loss 5 g/Kg, po measured after 5 weeks. To be noted: in vivo, 5000 mg/kg, 840 h. It counts as organism-based.
Data set [19] is described as follows: Toxicity in male Kunming mouse assessed as effect on TBIL level in serum at 100 to 500 mg/kg/day, po measured after 5 weeks. Format: organism-based. To be noted: in vivo, 840 h, dose 100-500 mg/kg/day.
A short description of data set [20]: Acute toxicity in female Kunming mouse assessed as effect on heart 5 g/Kg, po measured after 5 weeks. Conditions: in vivo, 5000 mg/kg, 840 h. It counts as organism-based.
Data set [21] in a line: Toxicity in female Kunming mouse assessed as effect on ABL level in serum at 100 to 500 mg/kg/day, po measured after 5 weeks. Conditions: in vivo, 840 h, dose 100-500 mg/kg/day. It counts as organism-based.
Data set [22] is described as follows: Acute toxicity in male Kunming mouse assessed as effect on spleen 5 g/Kg, po measured after 5 weeks. It counts as organism-based. Conditions: in vivo, 5000 mg/kg, 840 h.
A short description of data set [23]: Toxicity in male Kunming mouse assessed as effect on TG level in serum at 100 to 500 mg/kg/day, po measured after 5 weeks. It counts as organism-based. Conditions: in vivo, 840 h, dose 100-500 mg/kg/day.
Data set [24] can be described thus: Acute toxicity in male Kunming mouse assessed as effect on body weight loss 5 g/Kg, po measured after 5 weeks. It counts as organism-based. Conditions: in vivo, 5000 mg/kg, 840 h.
Data set [25] can be described thus: Toxicity in male Kunming mouse assessed as effect on K inorganic salt level in serum at 100 to 500 mg/kg/day, po measured after 5 weeks. It counts as organism-based. Conditions: in vivo, 840 h, dose 100-500 mg/kg/day.
Data set [26] in a line: Toxicity in male Kunming mouse assessed as effect on lung to body weight ratio at 100 to 500 mg/kg/day, po measured after 5 weeks. Format: organism-based. Conditions: in vivo, 840 h, dose 100-500 mg/kg/day.
A short description of data set [27]: Acute toxicity in female Kunming mouse assessed as effect on spleen 5 g/Kg, po measured after 5 weeks. To be noted: in vivo, 5000 mg/kg, 840 h. Format: organism-based.
Data set [28] can be described thus: Toxicity in male Kunming mouse assessed as effect on TP level in serum at 100 to 500 mg/kg/day, po measured after 5 weeks. It counts as organism-based. To be noted: in vivo, 840 h, dose 100-500 mg/kg/day.
In data set [29] the test system is Mus musculus. As to the kind of experiment: Antiinflammatory activity in DSS-induced male C57BL/6 mouse model of inflammatory bowel disease assessed as downregulation of MyD88 expression at 50 to 100 microM/Kg by Western blot analysis. To be noted: dose 50-100 µM/Kg. Format: functional, organism-based.
Data set [30] in a line: Toxicity in female Kunming mouse assessed as effect on Na inorganic salt level in serum at 100 to 500 mg/kg/day, po measured after 5 weeks. It counts as organism-based. Conditions: in vivo, 840 h, dose 100-500 mg/kg/day.
A short description of data set [31]: Toxicity in male Kunming mouse assessed as effect on GGT level in serum at 100 to 500 mg/kg/day, po measured after 5 weeks. It counts as organism-based. To be noted: in vivo, 840 h, dose 100-500 mg/kg/day.
Data set [32] in a line: Toxicity in female Kunming mouse assessed as effect on ALT level in serum at 100 to 500 mg/kg/day, po measured after 5 weeks. It counts as organism-based. Conditions: in vivo, 840 h, dose 100-500 mg/kg/day.

Each structure is given as a SMILES string. Activity calls are given as the source filed them. The calls are words filed in the database; no cut-off is given here.

With `CC(C)=C1OC(C)=C(O[C@@H]2O[C@H](CO)[C@@H](O)[C@H](O)[C@H]2O)C1=O`, the result in the data set on Mus musculus [1], with Mus musculus [3], in the data set on Mus musculus [4], in the data set filed under Mus musculus [5], in the data set with Mus musculus [6] and in the data set listed under Mus musculus [7] was Active. The outcome in the data set on Mus musculus [10] was Active. In addition, the Activity in the data set with Mus musculus [2] was found to be 79.1%; with Mus musculus [8] it was 37.5%; in the data set with Mus musculus [9], 69.4%; in the data set on Mus musculus [11] it was 73.4%.

As a reminder, the half-life is how long it takes for the measured level to halve. On to `CC(=O)OC[C@H]1O[C@@H](OC2=C(C)OC(=C(C)C)C2=O)[C@H](OC(C)=O)[C@@H](OC(C)=O)[C@@H]1OC(C)=O`, for which the Activity entry is “Non-toxic” in [12]; “Non-toxic” in [14]; 91.4% with Mus musculus [16]; “Non-toxic” in data set [17]; “Non-toxic” in data set [18]; “Non-toxic” in data set [19]. The Activity result in [20], in [21], in data set [22], in data set [23], in data set [24] and in data set [25] was “Non-toxic” throughout. Moreover, the Activity result in data set [26], in data set [27], in [28], in [30], in data set [31] and in data set [32] was “Non-toxic” each time. Also, the result with Mus musculus [13] and with Mus musculus [29] was Active. Besides, in data set [15], the half-life was found to be 27.7 min.
